Read-outs that look alike come from different tables or passages of the source.

One data set addresses NDM-1 (Klebsiella pneumoniae, UniProt C7C422). In words: biochemical. The class given is biochemical. The following applies: CCF2-FA substrate, 2 hours at 25° C; read-out: NDM-1 IC50. The procedure, abridged: (§1)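 Fluorescence assay, CCF2-FA substrate (cephalosporin core linking 7-hydroxycoumarin to fluorescein); inhibitor + MBL + substrate, 2 h, 25° C. IC50 by 4-parameter fit, semi-log plot.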

The next data set has as its target IMP-1 (Serratia marcescens, UniProt P52699). As to the kind of experiment: biochemical. The class given is biochemical. In a few lines:
as §1

For data set [1], the system named is Klebsiella pneumoniae expressing VIM-1 (IHMA599644). The class given is cell-based. Conditions: with imipenem 1 μg/ml, 95% inhibition of bacterial growth; for Klebsiella pneumoniae MITC95: VIM-1 (IHMA599644). The procedure, abridged:
(§2)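 Colonies from overnight 35 °C blood-agar cultures were suspended in saline, diluted 1:100 into 1.1× CAMHB and exposed to test compound with or without imipenem at 1 μg/ml. After 22–24 h at 35 °C, absorbance was read to find the concentration restoring imipenem susceptibility.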

In data set [2] the test system is Serratia marcescens expressing IMP-1 (CL5741). The class given is cell-based. Conditions: with imipenem 1 μg/ml, 95% inhibition of bacterial growth; for Serratia marcescens MITC95: IMP-1 (CL5741). The procedure, abridged: as §2
The test system of data set [3] is Escherichia coli expressing NDM-1 (CLB30005, CLB30016). The class given is cell-based. Conditions: with imipenem 1 μg/ml, 95% inhibition of bacterial growth; for Escherichia coli MITC95: NDM-1 (CLB30016). In a few lines:
as §2

The subject of data set [4] is P. aeruginosa expressing IMP-1, efflux+ (MB9798). The class given is cell-based, Pseudomonas aeruginosa. The following applies: for P. aeruginosa expressing IMP-1, efflux+ (MB9798) MITC95: imipenem at 2 μg/mL, in the presence of a class A, C, D serine β-lactamase inhibitor closely related to relebactam; for Efflux ratio: ratio MITC95 PA_9798/MITC95 PA_9799. From the text:
(§3) The strain background is Pseudomonas aeruginosa PAO1.

The test system of data set [5] is P. aeruginosa expressing IMP-1, efflux− (MB9799). As to the kind of experiment: Efflux: concentration of MBL inhibitor which restores susceptibility to imipenem. The class given is cell-based, Pseudomonas aeruginosa. The following applies: imipenem at 2 μg/mL, in the presence of a class A, C, D serine β-lactamase inhibitor closely related to relebactam.
From the text: as §3

Another data set has as its target VIM-1 (Pseudomonas aeruginosa (strain ATCC 15692 / DSM 22644 / CIP 104116 / JCM 14847 / LMG 12228 / 1C / PRS 101 / PAO1), UniProt A0A0F7KYQ8). As to the kind of experiment: biochemical. The following applies: CCF2-FA substrate, 2 hours at 25° C. In a few lines: as §1
[6] abbreviates: CCF2-FA substrate, 2 hours at 25° C, read-out: IMP-1 IC50.

Sequence of IMP-1 (P52699 whole entry, looked up, species assumed): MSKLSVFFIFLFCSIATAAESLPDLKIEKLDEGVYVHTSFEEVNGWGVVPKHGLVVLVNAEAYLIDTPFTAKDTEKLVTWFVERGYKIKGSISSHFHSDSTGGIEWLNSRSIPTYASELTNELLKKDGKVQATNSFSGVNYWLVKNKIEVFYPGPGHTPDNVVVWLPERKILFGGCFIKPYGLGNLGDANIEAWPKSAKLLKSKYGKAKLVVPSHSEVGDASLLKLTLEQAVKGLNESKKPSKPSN
Sequence of NDM-1 (C7C422 whole entry, looked up, species assumed): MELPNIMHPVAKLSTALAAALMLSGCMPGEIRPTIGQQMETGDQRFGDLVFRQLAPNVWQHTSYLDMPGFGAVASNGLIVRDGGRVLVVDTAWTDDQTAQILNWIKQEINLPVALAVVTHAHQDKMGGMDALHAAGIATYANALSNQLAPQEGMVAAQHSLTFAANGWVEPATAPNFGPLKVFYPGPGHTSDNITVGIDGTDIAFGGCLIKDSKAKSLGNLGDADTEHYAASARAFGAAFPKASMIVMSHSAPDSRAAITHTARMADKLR

As a reminder, the IC50 is the concentration at which inhibition is half-maximal. For `NS(=O)(=O)c1c(S(=O)(=O)C2CNC2)ccc(-c2cccc3[nH]cnc23)c1-c1nn[nH]n1` [Example 332, 6-(Azetidin-3-ylsulfonyl)-3-(1H-benzo[d]imidazol-4-yl)-2-(2H-tetrazol-5-yl)benzenesulfonamide], the IC50 at NDM-1 turned out to be 0.124 nM; at IMP-1 (setting [6]) it was 0.557 nM; on VIM-1, 0.275 nM. In addition, in data set [1], the “Klebsiella pneumoniae MITC95” value is 3.125 µM. The “Serratia marcescens MITC95” value in data set [2] worked out at 1.563 µM. Besides, the “Escherichia coli MITC95” value in data set [3] was 0.7813 µM. Further, the “P. aeruginosa expressing IMP-1, efflux+ (MB9798) MITC95” value in data set [4] was 6.25 µM. The Efflux ratio in data set [4] came out at 4.00. For the same compound, the “P. aeruginosa expressing IMP-1, efflux− (MB9799) MITC95” value in data set [5] worked out at 1.563 µM.

On to `NCCS(=O)(=O)c1ccc(-c2ccc3nc(N)oc3c2)c(-c2nn[nH]n2)c1S(N)(=O)=O` [Example 75, 3-(2-aminobenzo[d]oxazol-6-yl)-6-(2-aminoethylsulfonyl)-2-(2H-tetrazol-5-yl)benzenesulfonamide], for which the figures for the IC50 at NDM-1, at IMP-1 (setting [6]) and at VIM-1 were 0.5 nM, 0.433 nM and 0.283 nM, respectively. Besides, the “Klebsiella pneumoniae expressing VIM-1 (IHMA599644) MITC95” value in data set [1] was found to be 1.563 µM. In data set [2], the “Serratia marcescens expressing IMP-1 (CL5741) MITC95” value came out at 1.563 µM. In addition, the “Escherichia coli expressing NDM-1 (CLB30016) MITC95” value in data set [3] turned out to be 1.563 µM. For the same compound, in data set [4], the “P. aeruginosa expressing IMP-1, efflux+ (MB9798) MITC95” value turned out to be 6.25 µM. In data set [4], the Efflux ratio is reported as 8.00. Further, the “P. aeruginosa expressing IMP-1, efflux− (MB9799) MITC95” value in data set [5] came out at 0.7813 µM.

For the compound `C[C@H](N)CS(=O)(=O)c1ccc(-c2cccc3[nH]cnc23)c(-c2nn[nH]n2)c1S(N)(=O)=O` [Example 355], the IC50 on NDM-1 is 0.165 nM; at IMP-1 (setting [6]), 0.327 nM; against VIM-1, 0.165 nM. In data set [1], the “Klebsiella pneumoniae MITC95” value came out at 3.125 µM. The “Serratia marcescens MITC95” value in data set [2] came out at 1.563 µM. Further, the “Escherichia coli MITC95” value in data set [3] is 1.563 µM. Besides, the “P. aeruginosa expressing IMP-1, efflux+ (MB9798) MITC95” value in data set [4] was found to be 3.125 µM. Further, in data set [4], the Efflux ratio is 2.00. Further, the “P. aeruginosa expressing IMP-1, efflux− (MB9799) MITC95” value in data set [5] was determined as 1.563 µM.

For the compound `NCCCNC(=O)c1cccc(-c2ccc(S(=O)(=O)CCN)c(S(N)(=O)=O)c2-c2nn[nH]n2)c1N` [Example 375, 2-Amino-4′-((2-aminoethyl)sulfonyl)-N-(3-aminopropyl)-3′-sulfamoyl-2′-(2H-tetrazol-5-yl)-[1,1′-biphenyl]-3-carboxamide], the IC50 on NDM-1 came to 2.11 nM; at IMP-1 (setting [6]), 1.71 nM; against VIM-1 it was 0.53 nM. The “Klebsiella pneumoniae MITC95” value in data set [1] worked out at 1.563 µM. Further, the “Serratia marcescens MITC95” value in data set [2] worked out at 1.563 µM. Moreover, the “Escherichia coli MITC95” value in data set [3] was found to be 1.563 µM. Besides, the “P. aeruginosa expressing IMP-1, efflux+ (MB9798) MITC95” value in data set [4] was determined as 1.563 µM. The Efflux ratio in data set [4] was determined as 2.00. In addition, the “P. aeruginosa expressing IMP-1, efflux− (MB9799) MITC95” value in data set [5] was 0.7813 µM.

Take `N[C@@H](CO)CS(=O)(=O)c1ccc(-c2cccc3[nH]cnc23)c(-c2nn[nH]n2)c1S(N)(=O)=O` [Example 357, (S)-6-((2-amino-3-hydroxypropyl)sulfonyl)-3-(1H-benzo[d]imidazol-4-yl)-2-(2H-tetrazol-5-yl) benzenesulfonamide]: the results for the IC50 at NDM-1, on IMP-1 (setting [6]) and at VIM-1 were 0.163 nM, 0.294 nM and 0.249 nM, respectively. The “Klebsiella pneumoniae MITC95” value in data set [1] is 3.125 µM. Besides, the “Serratia marcescens MITC95” value in data set [2] amounted to 1.563 µM. Besides, the “Escherichia coli MITC95” value in data set [3] came out at 1.563 µM. The “P. aeruginosa expressing IMP-1, efflux+ (MB9798) MITC95” value in data set [4] was determined as 0.7813 µM. Moreover, the Efflux ratio in data set [4] was found to be 0.50. In addition, the “P. aeruginosa expressing IMP-1, efflux− (MB9799) MITC95” value in data set [5] was determined as 1.563 µM.

For the compound `Nc1nc2c(-c3ccc(S(=O)(=O)C4CNC4)c(S(N)(=O)=O)c3-c3nn[nH]n3)cccn2n1` [Example 216, 3-(2-amino-[,2,4]triazolo[1,5-a]pyridin-8-yl)-6-(azetidin-3-ylsulfonyl)-2-(2H-tetrazol-5-yl)benzenesulfonamide], the results for the IC50 on NDM-1, on IMP-1 (setting [6]) and against VIM-1 were 0.102 nM, 1.66 nM and 0.151 nM, respectively. Moreover, the “Klebsiella pneumoniae expressing VIM-1 (IHMA599644) MITC95” value in data set [1] was 6.25 µM. In addition, in data set [2], the “Serratia marcescens expressing IMP-1 (CL5741) MITC95” value was determined as 3.125 µM. Moreover, in data set [3], the “Escherichia coli expressing NDM-1 (CLB30016) MITC95” value was 12.5 µM. Moreover, the “P. aeruginosa expressing IMP-1, efflux+ (MB9798) MITC95” value in data set [4] came out at 6.25 µM. Besides, the Efflux ratio in data set [4] is reported as 4.00. In addition, the “P. aeruginosa expressing IMP-1, efflux− (MB9799) MITC95” value in data set [5] is 1.563 µM.

`Nc1nc2cccc(-c3ccc(S(=O)(=O)C4CNC4)c(S(N)(=O)=O)c3-c3nn[nH]n3)c2o1` [Example 28, 3-(2-aminobenzo[d]oxazol-7-yl)-6-(azetidin-3-ylsulfonyl)-2-(2H-tetrazol-5-yl)benzenesulfonamide]: the IC50 at NDM-1 worked out at 0.0489 nM; against IMP-1, 1.33 nM; against VIM-1, 0.173 nM. Further, in data set [1], the “Klebsiella pneumoniae expressing VIM-1 (IHMA599644) MITC95” value was 3.125 µM. For the same compound, the “Serratia marcescens expressing IMP-1 (CL5741) MITC95” value in data set [2] was determined as 3.125 µM. Further, the “Escherichia coli expressing NDM-1 (CLB30016) MITC95” value in data set [3] was 1.563 µM. In addition, the “P. aeruginosa expressing IMP-1, efflux+ (MB9798) MITC95” value in data set [4] turned out to be 6.25 µM. Also, in data set [4], the Efflux ratio is given as 4.00. Besides, the “P. aeruginosa expressing IMP-1, efflux− (MB9799) MITC95” value in data set [5] was 1.563 µM.

As to `Cc1ccc(-c2ccc(S(=O)(=O)C3CNC3)c(S(N)(=O)=O)c2-c2nn[nH]n2)c2nc(N)[nH]c12` [Example 15, 3-(2-Amino-7-methyl-1H-benzo[d]imidazol-4-yl)-6-(azetidin-3-ylsulfonyl)-2-(2H-tetrazol-5-yl)benzenesulfonamide], the figures for the IC50 on NDM-1, on IMP-1 (setting [6]) and against VIM-1 were 0.0897 nM, 0.613 nM and 0.206 nM, respectively. The “Klebsiella pneumoniae expressing VIM-1 (IHMA599644) MITC95” value in data set [1] is 0.7813 µM. Also, the “Serratia marcescens expressing IMP-1 (CL5741) MITC95” value in data set [2] turned out to be 0.3906 µM. The “Escherichia coli expressing NDM-1 (CLB30016) MITC95” value in data set [3] amounted to 0.3906 µM. Also, in data set [4], the “P. aeruginosa expressing IMP-1, efflux+ (MB9798) MITC95” value worked out at 0.3906 µM. In addition, the Efflux ratio in data set [4] is 1.00. For the same compound, the “P. aeruginosa expressing IMP-1, efflux− (MB9799) MITC95” value in data set [5] amounted to 0.3906 µM.

For the compound `NS(=O)(=O)c1c(S(=O)(=O)C2CNC2)ccc(-c2csc(N3CCCC3)n2)c1-c1nnn[nH]1.O=C(O)C(F)(F)F` [Example 120, 3-((4-(2-(pyrrolidin-1-yl)thiazol-4-yl)-2-sulfamoyl-3-(1H-tetrazol-5-yl)phenyl)sulfonyl)azetidin-1-ium 2,2,2-trifluoroacetate], the values for the IC50 on NDM-1, at IMP-1 (setting [6]) and at VIM-1 were 0.755 nM, 0.553 nM and 1.42 nM, respectively. In addition, the “Klebsiella pneumoniae expressing VIM-1 (IHMA599644) MITC95” value in data set [1] came to 6.25 µM. Moreover, in data set [2], the “Serratia marcescens expressing IMP-1 (CL5741) MITC95” value was 3.125 µM. The “Escherichia coli expressing NDM-1 (CLB30016) MITC95” value in data set [3] was determined as 3.125 µM. Further, the “P. aeruginosa expressing IMP-1, efflux+ (MB9798) MITC95” value in data set [4] stood at 25 µM. Besides, in data set [4], the Efflux ratio is recorded as 15.99. In addition, in data set [5], the “P. aeruginosa expressing IMP-1, efflux− (MB9799) MITC95” value turned out to be 1.563 µM.

Consider `Nc1nc2cccc(-c3ccc(S(=O)(=O)C4CCNCC4)c(S(N)(=O)=O)c3-c3nn[nH]n3)c2[nH]1` [Example 42, 3-(2-amino-3H-benzo[d]imidazol-4-yl)-6-(piperidin-4-ylsulfonyl)-2-(2H-tetrazol-5-yl)benzenesulfonamide], for which the IC50 on NDM-1 came out at 0.177 nM; on IMP-1 (setting [6]) it was 1.19 nM; against VIM-1, 0.306 nM. Also, the “Klebsiella pneumoniae expressing VIM-1 (IHMA599644) MITC95” value in data set [1] came to 1.563 µM. Further, in data set [2], the “Serratia marcescens expressing IMP-1 (CL5741) MITC95” value was 1.563 µM. In data set [3], the “Escherichia coli expressing NDM-1 (CLB30016) MITC95” value is 0.5859 µM. In addition, in data set [4], the “P. aeruginosa expressing IMP-1, efflux+ (MB9798) MITC95” value is 0.7813 µM. Also, the Efflux ratio in data set [4] is reported as 1.00. In addition, the “P. aeruginosa expressing IMP-1, efflux− (MB9799) MITC95” value in data set [5] was found to be 0.7813 µM.

Values taken from patent US10227331B2 (priority 2015, dated 2019).
